In assay [1] the test system is LPS triggered IL-10 secretion in monocyte-derived macrophages (MdM). The assay is described as follows: MdM assay: LPS-triggered IL-10 (ELISA). The format is cell-based, human. To be noted: LPS 200 ng/mL, supernatant after 2 h, maximal fold change vs LPS only. Here is the method:
SIK inhibition inhibits TNFα and increases IL-10 release in LPS triggered monocyte-derived macrophages (MdM) and dendritic […] al. 2012; Sundberg et al. 2014; Ozanne et al. 2015). This assay evaluates illustrative compounds of the invention for their inhibition of LPS-induced TNFα and LPS triggered IL-10 secretion in monocyte-derived macrophages. PBMCs are isolated from human blood samples (buffycoats). The buffy coat is aseptically transferred into a 50 mL Falcon tube, and diluted 1/2 in PBS. Falcon tubes are filled with 20 mL LymphoprepTM, on top of which 25 mL of the buffy coat is carefully added, tubes are centrifuged for 35 min at 400 g in temperature controlled centrifuge, without brake, at 25° C. PBMCs are aspirated from the white interface layer between sample and LymphoprepTM. PBMCs are washed five times in PBS. Cells are resuspended in RPMI 1640 complete medium supplemented with 10% FBS, 1% P/S, and cell density is determined using a hematologic analyzer (Sysmex XS-500i). PBMCs are centrifuged at 300×g for 10 min and resuspended at a density of 1.0*10^7 cells/80 μL Miltenyi buffer (PBS, pH 7.4, 1% FBS, 2 mM EDTA). Starting from this point of the protocol all steps are performed on ice. 20 μL of CD14+ micro-beads are added per 1.0*10^7 cells, the tube is mixed and incubated for 15 min in the fridge at 4° C. Cell suspension volume is adjusted to total volume of 100 mL using Miltenyi buffer, mixed gently and subsequently centrifuged for 10 min at 300×g. Supernantant is discarded and cell pellet is resuspended in 12 mL of Miltenyi buffer. Four LS columns are placed in the MACS Separator (magnet) from Miltenyi Biotec, and are prewet by rinsing with 3 mL of MACS buffer per column. Three mL of cell suspension is added onto the column (max 1*10^8 of labelled cells/column), and columns are subsequently washed 3 times with 3 mL of Miltenyi buffer. The columns are removed from the magnets, and 5 mL of Miltenyi buffer are added to the column to flush out the CD14+ fraction by pushing the plunger into the column. The flushed fractions are collected in a fresh 50 mL Falcon and volume is adjusted to 30 mL using Miltenyi buffer, cells are centrifuged for 10 min at 300×g. The obtained cell pellet is resuspended in 10 mL RPMI w/o FBS, and cell density is determined using a hematologic analyser (Sysmex XS-500i). 100 000 cells are seeded per well of a 96-well plate for differentiation to MdM in RPMI 1640 medium supplemented with 10% FBS, 1% P/S and 100 ng/mL rhM-CSF. On day 5 the medium is refreshed with 100 μL RPMI 1640 medium supplemented with 10% FBS, 1% P/S and 100 ng/mL rhM-CSF. On day 10, MdMs are triggered and compound is added. A compound dilution plate is made in 100% DMSO by 3-fold dilution of 10 mM stock solution. An intermediate dilution plate (10× final concentration) is made by diluting the compound dilution plate 50-fold in RPMI medium. Medium is carefully removed from cell plates using multichannel pipette, and replaced by 80 μL fresh medium. 10 μL of the 10× final concentration compound is added to the cells and incubated for 1 hour at 37° C. before addition of trigger. No trigger conditions/trigger conditions are spiked with equal final DMSO concentrations of 0.2% DMSO. 10 μL of 10×LPS (final conc. 200 ng/mL) solution are added to all wells except for the 'no trigger wells' where 10 μL medium is added. Supernatant is collected after 2 h (IL-10 determination) and after 20 h (TNFα determination) of LPS triggering. […]
(ELISA stands for enzyme-linked immunosorbent assay.)

The next assay has as its target T1, SIK1 (Homo sapiens, UniProt P57059).
T1 construct: purchased Carna Biosciences 02-131
The assay is described as follows: ADP-Glo kinase assay, SIK1. The class given is biochemical. To be noted: ADP-Glo SIK kinase assay. The method in brief:
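Enzyme–substrate mix was started with ATP and incubated 120 min at RT. ADP formed was quantified by ADP-Glo: 40 min ATP depletion, then 30 min detection reagent converting ADP to ATP for luciferase luminescence, which rises with kinase activity. Controls: 1% DMSO and 10 μM staurosporine (final).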
For orientation: ADP-Glo turns the ADP formed in a reaction into a luminescent signal.

In another assay the target is T2, SIK2 (Homo sapiens, UniProt Q9H0K1).
T2 construct: purchased ThermoFisher Scientific PV4792
The assay is described as follows: ADP-Glo kinase assay, SIK2. To be noted: ADP-Glo SIK kinase assay. The format is biochemical. The method in brief:
(§1)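 Kinase reactions (enzyme-substrate mix plus ATP) ran 120 min at room temperature for each of SIK3 and SIK2. Signal came from ADP-Glo: unconsumed ATP removed (40 min), ADP reconverted and detected by luciferase/luciferin (30 min), with luminescence tracking kinase activity. 10 μM staurosporine and 1% DMSO (final) served as controls.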

For the next assay, the target named is T3, SIK3 (Homo sapiens, UniProt Q9Y2K2).
T3 construct: purchased SignalChem S12-11G-100
The assay is described as follows: ADP-Glo kinase assay, SIK3. The format is biochemical. To be noted: ADP-Glo SIK kinase assay. The method in brief: as §1

Broadly, the IC50 is the concentration that gives 50% inhibition. A high value points to lower potency.

T2 sequence (Q9H0K1 whole entry): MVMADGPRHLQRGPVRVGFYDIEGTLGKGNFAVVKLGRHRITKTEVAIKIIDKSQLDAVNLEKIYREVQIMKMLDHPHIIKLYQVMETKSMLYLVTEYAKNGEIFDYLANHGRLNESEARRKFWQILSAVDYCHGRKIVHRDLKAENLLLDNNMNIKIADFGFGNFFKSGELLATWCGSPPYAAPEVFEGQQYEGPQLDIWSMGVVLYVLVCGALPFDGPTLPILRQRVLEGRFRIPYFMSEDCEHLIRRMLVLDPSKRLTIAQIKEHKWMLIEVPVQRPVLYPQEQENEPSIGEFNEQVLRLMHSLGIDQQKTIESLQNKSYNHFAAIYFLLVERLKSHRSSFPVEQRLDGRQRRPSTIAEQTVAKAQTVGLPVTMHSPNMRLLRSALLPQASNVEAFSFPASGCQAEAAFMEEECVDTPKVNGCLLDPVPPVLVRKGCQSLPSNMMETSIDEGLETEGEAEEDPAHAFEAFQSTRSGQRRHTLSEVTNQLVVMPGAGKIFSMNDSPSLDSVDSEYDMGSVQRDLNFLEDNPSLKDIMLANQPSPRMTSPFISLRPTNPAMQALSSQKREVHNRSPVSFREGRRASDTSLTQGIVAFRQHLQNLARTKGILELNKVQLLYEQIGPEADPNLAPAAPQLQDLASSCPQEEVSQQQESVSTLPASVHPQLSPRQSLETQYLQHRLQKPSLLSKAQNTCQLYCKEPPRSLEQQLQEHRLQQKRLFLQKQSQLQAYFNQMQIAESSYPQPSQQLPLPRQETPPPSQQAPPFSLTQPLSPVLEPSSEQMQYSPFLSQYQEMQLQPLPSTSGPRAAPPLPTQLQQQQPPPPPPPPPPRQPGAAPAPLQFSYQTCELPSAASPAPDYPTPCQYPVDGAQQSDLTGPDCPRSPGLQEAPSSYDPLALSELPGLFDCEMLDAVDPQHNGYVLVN
T1 sequence (P57059 whole entry): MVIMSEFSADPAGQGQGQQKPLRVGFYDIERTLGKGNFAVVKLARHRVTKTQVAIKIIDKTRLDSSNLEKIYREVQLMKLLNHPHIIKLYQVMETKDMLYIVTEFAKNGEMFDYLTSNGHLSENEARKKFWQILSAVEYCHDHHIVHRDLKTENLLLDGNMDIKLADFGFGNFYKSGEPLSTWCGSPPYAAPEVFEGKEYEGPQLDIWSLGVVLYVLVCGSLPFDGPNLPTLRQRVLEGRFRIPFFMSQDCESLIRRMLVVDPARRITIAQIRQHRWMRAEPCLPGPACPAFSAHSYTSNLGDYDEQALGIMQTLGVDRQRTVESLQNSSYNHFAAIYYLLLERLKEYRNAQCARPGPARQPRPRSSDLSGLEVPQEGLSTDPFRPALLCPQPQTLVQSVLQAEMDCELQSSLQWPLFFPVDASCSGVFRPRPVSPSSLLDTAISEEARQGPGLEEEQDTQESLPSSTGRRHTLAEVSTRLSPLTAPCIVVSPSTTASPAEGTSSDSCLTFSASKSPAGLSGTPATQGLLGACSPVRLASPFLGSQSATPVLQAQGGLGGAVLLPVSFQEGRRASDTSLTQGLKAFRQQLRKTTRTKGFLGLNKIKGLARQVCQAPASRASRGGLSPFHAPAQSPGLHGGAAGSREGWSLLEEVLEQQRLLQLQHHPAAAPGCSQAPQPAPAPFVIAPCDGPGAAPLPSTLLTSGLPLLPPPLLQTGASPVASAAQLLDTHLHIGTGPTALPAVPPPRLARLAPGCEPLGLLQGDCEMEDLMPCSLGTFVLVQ
T3 sequence (Q9Y2K2 whole entry): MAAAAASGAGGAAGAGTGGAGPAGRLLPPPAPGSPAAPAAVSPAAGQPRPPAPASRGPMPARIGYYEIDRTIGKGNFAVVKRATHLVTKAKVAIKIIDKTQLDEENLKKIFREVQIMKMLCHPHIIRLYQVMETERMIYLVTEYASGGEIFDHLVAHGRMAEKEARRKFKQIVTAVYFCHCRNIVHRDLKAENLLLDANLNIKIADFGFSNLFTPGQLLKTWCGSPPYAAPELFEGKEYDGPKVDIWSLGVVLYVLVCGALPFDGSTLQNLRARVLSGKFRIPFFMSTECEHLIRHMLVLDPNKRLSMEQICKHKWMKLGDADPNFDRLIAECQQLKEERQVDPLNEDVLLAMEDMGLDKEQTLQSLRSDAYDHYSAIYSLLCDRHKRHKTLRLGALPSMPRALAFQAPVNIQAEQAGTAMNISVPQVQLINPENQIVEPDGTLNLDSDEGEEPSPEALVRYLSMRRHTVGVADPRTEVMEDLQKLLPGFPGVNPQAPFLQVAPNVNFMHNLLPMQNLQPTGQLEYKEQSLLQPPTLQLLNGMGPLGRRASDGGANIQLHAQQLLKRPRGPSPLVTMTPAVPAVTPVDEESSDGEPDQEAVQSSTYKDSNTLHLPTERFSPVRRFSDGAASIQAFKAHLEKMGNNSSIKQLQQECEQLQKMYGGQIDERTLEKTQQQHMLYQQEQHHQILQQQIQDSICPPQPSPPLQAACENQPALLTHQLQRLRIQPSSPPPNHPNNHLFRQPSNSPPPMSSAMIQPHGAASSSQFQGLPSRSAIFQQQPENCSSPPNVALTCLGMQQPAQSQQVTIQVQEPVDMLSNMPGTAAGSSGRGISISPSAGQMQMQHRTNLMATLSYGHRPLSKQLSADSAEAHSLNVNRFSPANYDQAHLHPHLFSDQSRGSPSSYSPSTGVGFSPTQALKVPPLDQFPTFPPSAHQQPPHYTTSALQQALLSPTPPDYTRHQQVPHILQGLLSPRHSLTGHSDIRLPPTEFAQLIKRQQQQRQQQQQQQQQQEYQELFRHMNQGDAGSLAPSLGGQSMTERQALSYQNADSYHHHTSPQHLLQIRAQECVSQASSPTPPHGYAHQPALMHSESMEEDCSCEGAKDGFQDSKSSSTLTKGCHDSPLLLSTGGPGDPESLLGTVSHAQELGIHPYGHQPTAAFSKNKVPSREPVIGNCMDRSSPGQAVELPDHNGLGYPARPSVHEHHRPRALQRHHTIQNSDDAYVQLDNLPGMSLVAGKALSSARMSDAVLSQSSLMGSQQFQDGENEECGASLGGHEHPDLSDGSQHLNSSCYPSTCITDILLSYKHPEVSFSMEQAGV

On to `COc1cc(-c2cnc3cc(OC[C@H]4CCCN4C)ccn23)cc2c1C(=O)N(CC(F)(F)F)CC2` [compound 124, 8-methoxy-6-[7-[[(2R)-1-methylpyrrolidin-2-yl]methoxy]imidazo[1,2-a]pyridin-3-yl]-2-(2,2,2-trifluoroethyl)-3,4-dihydroisoquinolin-1-one], for which, in assay [1], the “IL-10 FCmax median” value is recorded as “++ (>1.5-4.5)”. Moreover, the IC50 is above 500 nM on SIK1, 0.01 to 10 nM against SIK2 and 0.01 to 10 nM on SIK3.
As for `COc1cc(-c2cnc3cc(OCC4CCO4)ccn23)cc2c1C(=O)N(CC(F)(F)F)CC2` (centres unmarked) [compound 125, 8-methoxy-6-[7-(oxetan-2-ylmethoxy)imidazo[1,2-a]pyridin-3-yl]-2-(2,2,2-trifluoroethyl)-3,4-dihydroisoquinolin-1-one], the “IL-10 FCmax median” value in assay [1] is reported as “++ (>1.5-4.5)”. Besides, the IC50 lay within 100 to 500 nM against SIK1, 0.01 to 10 nM against SIK2 and 0.01 to 10 nM at SIK3.
Turning to `COc1cc(-c2cnc3cc(OCc4cnco4)ccn23)cc2c1C(=O)N(CC(F)(F)F)CC2` [compound 126, 8-methoxy-6-[7-(oxazol-5-ylmethoxy)imidazo[1,2-a]pyridin-3-yl]-2-(2,2,2-trifluoroethyl)-3,4-dihydroisoquinolin-1-one], the “IL-10 FCmax median” value in assay [1] is reported as “+ (≤1.5)”. The figures for the IC50 on SIK1, at SIK2 and against SIK3 were 100 to 500 nM, 0.01 to 10 nM and 0.01 to 10 nM, respectively.
On to `COc1cc(-c2cnc3cc(OCC4CN(C)CCO4)ccn23)cc2c1C(=O)N(CC(F)(F)F)CC2` (centres unmarked) [compound 127, 8-methoxy-6-[7-[(4-methylmorpholin-2-yl)methoxy]imidazo[1,2-a]pyridin-3-yl]-2-(2,2,2-trifluoroethyl)-3,4-dihydroisoquinolin-1-one], for which the “IL-10 FCmax median” value in assay [1] is “++ (>1.5-4.5)”. Also, the IC50 was 100 to 500 nM at SIK1, 0.01 to 10 nM at SIK2 and 0.01 to 10 nM at SIK3.
With `CCN(CC)CCOc1ccn2c(-c3cc4c(c(OC)c3)C(=O)N(CC(F)(F)F)CC4)cnc2c1` [compound 128, 6-[7-[2-(diethylamino)ethoxy]imidazo[1,2-a]pyridin-3-yl]-8-methoxy-2-(2,2,2-trifluoroethyl)-3,4-dihydroisoquinolin-1-one], in assay [1], the “IL-10 FCmax median” value is “++ (>1.5-4.5)”. Moreover, the IC50 at SIK1 is 100 to 500 nM; on SIK2 it was 0.01 to 10 nM; on SIK3 it was 0.01 to 10 nM.
As to `CN(C)CCOc1ccn2c(-c3cc(OC(F)F)c(C(=O)NC4CC4)c(OC(F)F)c3)cnc2c1` [compound 156, N-cyclopropyl-2,6-bis(difluoromethoxy)-4-[7-[2-(dimethylamino)ethoxy]imidazo[1,2-a]pyridin-3-yl]benzamide], in assay [1], the “IL-10 FCmax median” value is on record as “++ (>1.5-4.5)”. Besides, the figures for the IC50 against SIK1, on SIK2 and against SIK3 were 10 to 100 nM, 0.01 to 10 nM and 0.01 to 10 nM, respectively.
In the case of `COc1cc(-c2cnc3cc(OCCN(C)C)ccn23)cc(OC(F)F)c1C(=O)NCC(F)(F)F` [compound 166, 2-(difluoromethoxy)-4-[7-[2-(dimethylamino)ethoxy]imidazo[1,2-a]pyridin-3-yl]-6-methoxy-N-(2,2,2-trifluoroethyl)benzamide], the “IL-10 FCmax median” value in assay [1] is “++ (>1.5-4.5)”. For the same compound, the IC50 against SIK1 fell in the range of 100 to 500 nM; at SIK2 it was 0.01 to 10 nM; against SIK3 it was 0.01 to 10 nM.
In the case of `CNc1cc(-c2cnc3cc(OCCN(C)C)ccn23)cc2c1C(=O)N(CC(F)(F)F)CC2` [compound 167, 6-[7-[2-(dimethylamino)ethoxy]imidazo[1,2-a]pyridin-3-yl]-8-(methylamino)-2-(2,2,2-trifluoroethyl)-3,4-dihydroisoquinolin-1-one], in assay [1], the “IL-10 FCmax median” value is recorded as “+ (≤1.5)”. The IC50 at SIK1 is above 500 nM; against SIK2, 0.01 to 10 nM; on SIK3, 10 to 100 nM.
Consider `COc1cc(-c2cnc3cc(OC[C@H]4CN(C)CCO4)ccn23)cc2c1C(=O)N(CC(F)(F)F)CC2` [compound 190, 8-methoxy-6-[7-[[(2R)-4-methylmorpholin-2-yl]methoxy]imidazo[1,2-a]pyridin-3-yl]-2-(2,2,2-trifluoroethyl)-3,4-dihydro isoquinolin-1-one], for which, in assay [1], the “IL-10 FCmax median” value is “++ (>1.5-4.5)”. The half-maximal inhibitory concentration (IC50) at SIK1 lay in the range of 100 to 500 nM; against SIK2 it was 0.01 to 10 nM; at SIK3 it was 0.01 to 10 nM.
As to `COc1cc(-c2cnc3cc(OC[C@@H]4CN(C)CCO4)ccn23)cc2c1C(=O)N(CC(F)(F)F)CC2` [compound 191, 8-methoxy-6-[7-[[(2S)-4-methylmorpholin-2-yl]methoxy]imidazo [1,2-a]pyridin-3-yl]-2-(2,2,2-trifluoroethyl)-3,4-dihydroisoquinolin-1-one], the “IL-10 FCmax median” value in assay [1] is reported as “++ (>1.5-4.5)”. The figures for the half-inhibitory concentration (IC50) at SIK1, against SIK2 and against SIK3 were 100 to 500 nM, 0.01 to 10 nM and 0.01 to 10 nM, respectively.
With `COc1cc(-c2cnc3cc(OCCN4C[C@@H]5C[C@H]4CO5)ccn23)cc(OC(F)F)c1C(=O)NC1CC1` [compound 206, N-cyclopropyl-2-(difluoromethoxy)-6-methoxy-4-[7-[2-[(1S,4S)-2-oxa-5-azabicyclo[2.2.1]heptan-5-yl]ethoxy]imidazo[1,2-a]pyridin-3-yl]benzamide], the “IL-10 FCmax median” value in assay [1] is given as “++ (>1.5-4.5)”. Also, the IC50 at SIK1 was 10 to 100 nM; on SIK2, 0.01 to 10 nM; against SIK3, 0.01 to 10 nM.
Regarding `COc1cc(-c2cnc3cc(OCCN4CCOCC4)ccn23)cc2c1C(=O)N(CC(F)F)CC2` [compound 218, 2-(2,2-difluoroethyl)-8-methoxy-6-[7-(2-morpholinoethoxy)imidazo [1,2-a]pyridin-3-yl]-3,4-dihydroisoquinolin-1-one], the “IL-10 FCmax median” value in assay [1] was “++ (>1.5-4.5)”. Also, the IC50 on SIK1 fell in the range of 100 to 500 nM; against SIK2, 0.01 to 10 nM; against SIK3, 0.01 to 10 nM.
Turning to `COc1cc(-c2cnc3cc(OC[C@H]4COCCO4)ccn23)cc2c1C(=O)N(CC(F)F)CC2` [compound 219, 2-(2,2-difluoroethyl)-6-[7-[[(2R)-1,4-dioxan-2-yl]methoxy]imidazo[1,2-a]pyridin-3-yl]-8-methoxy-3,4-dihydroisoquinolin-1-one], in assay [1], the “IL-10 FCmax median” value is “++ (>1.5-4.5)”. For the same compound, the 50% inhibitory concentration (IC50) against SIK1 was 100 to 500 nM; against SIK2 it was 0.01 to 10 nM; against SIK3 it was 0.01 to 10 nM.
`COc1cc(-c2cnc3cc(OCC4(C)CN(C)C4)ccn23)cc(OC(F)F)c1C(=O)NC1CC1` [compound 220, N-cyclopropyl-2-(difluoromethoxy)-4-[7-[(1,3-dimethylazetidin-3-yl)methoxy]imidazo[1,2-a]pyridin-3-yl]-6-methoxy-benzamide]: the “IL-10 FCmax median” value in assay [1] was “++ (>1.5-4.5)”. Also, the results for the IC50 against SIK1, against SIK2 and against SIK3 were 10 to 100 nM, 0.01 to 10 nM and 0.01 to 10 nM, respectively.

For the origin of these results see patent US12264156B2, “Compounds and pharmaceutical compositions thereof for the treatment of diseases” (GALAPAGOS NV, priority 2018, dated 2025).
